Values joined by “and” are separate entries in the source; they are usually repeats but may differ in a detail not shown here. Identical values can stand only once.
Experiment: Plasma PF-06873600 pharmacokinetics (LC/MS-MS, noncompartmental analysis)
Format: in vivo, human
Description: Plasma samples were analyzed for PF-06873600 concentrations at Q2 Solutions using a validated analytic assay in compliance with Pfizer standard operating procedures. PF-06873600 samples were assayed by a validated LC/MS-MS using positive ionization mode. PK parameters were calculated using noncompartmental analysis of plasma concentration–time data.

[1] = 25 mg twice daily, after multiple dosing
[2] = Cycle 1 Day 1, Part 1 25 mg BID IR (pooled cohorts)
[3] = Cycle 1 Day 1, Part 1A 1 mg BID IR
[4] = Cycle 1 Day 1, Part 1A 2 mg BID IR
[5] = Cycle 1 Day 1, Part 1A 5 mg BID IR
[6] = Cycle 1 Day 1, Part 1A 10 mg BID IR
[7] = Cycle 1 Day 1, Part 1A 25 mg BID Biomarker IR
[8] = Cycle 1 Day 1, Part 1A 25 mg BID IR
[9] = Cycle 1 Day 1, Part 1A 35 mg BID IR
[10] = Cycle 1 Day 1, Part 1A 35 mg BID Intm 5/2 IR
[11] = Cycle 1 Day 1, Part 1A 50 mg BID IR
[12] = Cycle 1 Day 1, Part 1B 25 mg BID +Ful IR
[13] = Cycle 1 Day 1, Part 1B 25 mg BID +Let IR
[14] = Cycle 1 Day 1, Part 1C MR 20 mg lead-in IR 25 mg BID
[15] = Cycle 1 Day 1, Part 1C MR 30 mg BID long duration
[16] = Cycle 1 Day 15, Part 1 25 mg BID IR (pooled cohorts)
[17] = Cycle 1 Day 15, Part 1A 1 mg BID IR

C[C@@]1(O)CCC[C@H]1n1c(=O)c(C(F)F)cc2cnc(NC3CCN(S(C)(=O)=O)CC3)nc21 [PF-06873600]
Geometric mean coefficient of variation percentage, AUCtau [1]: 45%
Geometric mean coefficient of variation percentage, Cmax [1]: 43%
Geometric mean coefficient of variation percentage, Cmin [1]: 119%
Geometric mean coefficient of variation percentage, AUCinf (25 mg twice daily, single dose): 58%
Geometric mean coefficient of variation percentage, Cmax (25 mg twice daily, single dose): 56%
AUCinf, geometric mean (%CV) [2]: 1019 (58) ng.h/mL
AUClast, geometric mean (%CV) [2]: 912.4 (52) ng.h/mL
CL/F, geometric mean (%CV) [2]: 24.55 (58) L/h
Cmax, geometric mean (%CV) [2]: 194 ng/mL
Tmax, median (range) [2]: 2.00 h
Vz/F, geometric mean (%CV) [2]: 85.26 (52) L
t1/2, arithmetic mean±standard deviation [2]: 2.444 ± 0.4523 h
AUCinf, individual value(s) [3]: 21.0 ng·h/mL
AUClast, individual value(s) [3]: 18.3 ng·h/mL
CL/F, individual value(s) [3]: 47.6 L/h
Cmax, individual value(s) [3]: 5.39 ng/mL
Tmax, median (range) [3]: 2.17 h
Vz/F, individual value(s) [3]: 111 L
t1/2, individual value(s) [3]: 5800 s
AUCinf, individual value(s) [4]: 45.2 ng·h/mL
AUClast, individual value(s) [4]: 39.2 ng·h/mL and 58.3 ng·h/mL
CL/F, individual value(s) [4]: 44.2 L/h
Tmax, median (range) [4]: 1.25 h
Vz/F, individual value(s) [4]: 116 L
t1/2, individual value(s) [4]: 6550 s
AUCinf, individual value(s) [5]: 101 ng·h/mL
AUClast, individual value(s) [5]: 96.6 ng·h/mL and 442 ng·h/mL
CL/F, individual value(s) [5]: 49.7 L/h
Tmax, median (range) [5]: 2.02 h
Vz/F, individual value(s) [5]: 141 L
t1/2, individual value(s) [5]: 7060 s
AUCinf, geometric mean (%CV) [6]: 648.4 (60) ng.h/mL
AUClast, geometric mean (%CV) [6]: 599.4 (53) ng.h/mL
CL/F, geometric mean (%CV) [6]: 15.43 (60) L/h
Cmax, geometric mean (%CV) [6]: 164 ng/mL
Tmax, median (range) [6]: 0.983 h
Vz/F, geometric mean (%CV) [6]: 55.32 (28) L
t1/2, arithmetic mean±standard deviation [6]: 2.567 h
AUCinf, geometric mean (%CV) [7]: 892.6 (73) ng.h/mL
AUClast, geometric mean (%CV) [7]: 787.9 (59) ng.h/mL
CL/F, geometric mean (%CV) [7]: 28.04 (73) L/h
Tmax, median (range) [7]: 1.90 h
Vz/F, geometric mean (%CV) [7]: 97.32 (56) L
t1/2, arithmetic mean±standard deviation [7]: 2.446 h
AUCinf, geometric mean (%CV) [8]: 1492 (20) ng.h/mL
AUClast, geometric mean (%CV) [8]: 1295 (25) ng.h/mL
CL/F, geometric mean (%CV) [8]: 16.78 (20) L/h
Cmax, geometric mean (%CV) [8]: 244 ng/mL
Tmax, median (range) [8]: 2.17 h
Vz/F, geometric mean (%CV) [8]: 61.33 (20) L
t1/2, arithmetic mean±standard deviation [8]: 2.540 h
AUCinf, individual value(s) [9]: 2010 ng·h/mL and 3400 ng·h/mL
AUClast, geometric mean (%CV) [9]: 2510 (25) ng.h/mL
CL/F, individual value(s) [9]: 10.3 L/h and 17.4 L/h
Cmax, geometric mean (%CV) [9]: 388 ng/mL
Tmax, median (range) [9]: 3.64 h
Vz/F, individual value(s) [9]: 55.5 L and 60.0 L
t1/2, individual value(s) [9]: 8600 s and 13500 s
AUCinf, geometric mean (%CV) [10]: 1614 (48) ng.h/mL
AUClast, geometric mean (%CV) [10]: 1395 (38) ng.h/mL
CL/F, geometric mean (%CV) [10]: 21.70 (48) L/h
Cmax, geometric mean (%CV) [10]: 276 ng/mL
Tmax, median (range) [10]: 2.02 h
Vz/F, geometric mean (%CV) [10]: 86.06 (37) L
t1/2, arithmetic mean±standard deviation [10]: 2.809 h
AUCinf, geometric mean (%CV) [11]: 1875 (41) ng.h/mL
AUClast, geometric mean (%CV) [11]: 1976 (49) ng.h/mL
CL/F, geometric mean (%CV) [11]: 26.63 (41) L/h
Cmax, geometric mean (%CV) [11]: 394 ng/mL
Tmax, median (range) [11]: 3.49 h
Vz/F, geometric mean (%CV) [11]: 79.74 (15) L
t1/2, arithmetic mean±standard deviation [11]: 2.163 h
AUCinf, geometric mean (%CV) [12]: 884.3 (34) ng.h/mL
AUClast, geometric mean (%CV) [12]: 1034 (43) ng.h/mL
CL/F, geometric mean (%CV) [12]: 28.26 (34) L/h
Cmax, geometric mean (%CV) [12]: 225 ng/mL
Tmax, median (range) [12]: 1.97 h
Vz/F, geometric mean (%CV) [12]: 83.54 (17) L
t1/2, arithmetic mean±standard deviation [12]: 2.128 h
AUCinf, geometric mean (%CV) [13]: 1142 (50) ng.h/mL
AUClast, geometric mean (%CV) [13]: 1040 (46) ng.h/mL
CL/F, geometric mean (%CV) [13]: 21.87 (50) L/h
Cmax, geometric mean (%CV) [13]: 228 ng/mL
Tmax, median (range) [13]: 2.52 h
Vz/F, geometric mean (%CV) [13]: 72.18 (37) L
t1/2, arithmetic mean±standard deviation [13]: 2.428 h
AUCinf, geometric mean (%CV) [14]: 593.3 (17) ng.h/mL
AUClast, geometric mean (%CV) [14]: 596.8 (33) ng.h/mL
CL/F, geometric mean (%CV) [14]: 42.14 (17) L/h
Cmax, geometric mean (%CV) [14]: 122 ng/mL
Tmax, median (range) [14]: 2.00 h
Vz/F, geometric mean (%CV) [14]: 132.2 (52) L
t1/2, arithmetic mean±standard deviation [14]: 2.250 h
AUClast, geometric mean (%CV) [15]: 192.0 (201) ng.h/mL
Cmax, geometric mean (%CV) [15]: 43.5 ng/mL
Tmax, median (range) [15]: 10.0 (5.35–10.2) h
AUCtau, geometric mean (%CV) [16]: 1351 (45) ng.h/mL
CL/F, geometric mean (%CV) [16]: 18.53 (45) L/h
Cmax, geometric mean (%CV) [16]: 315.5 (43) ng/mL
Cmin, geometric mean (%CV) [16]: 30.23 (119) ng/mL
Rac (observed accumulation ratio based on AUC), geometric mean (%CV) [16]: 1.135 (34)
Tmax, median (range) [16]: 1.94 h
Vz/F, geometric mean (%CV) [16]: 75.77 (43) L
t1/2, arithmetic mean±standard deviation [16]: 2.765 h
AUCtau, individual value(s) [17]: 25.3 ng·h/mL
CL/F, individual value(s) [17]: 39.5 L/h

Source: publication PMC12260505, “First-in-Human Phase I/IIa Study of the First-in-Class CDK2/4/6 Inhibitor PF-06873600 Alone or with Endocrine Therapy in Patients with Breast Cancer” (Clinical Cancer Research, 2025)
